From US20250222169A1, “PHOTOINTIATOR, BIOINK INCLUDING THE SAME, AND METHODE OF MANUFACTURING HYDROGEL” (PUSAN NATIONAL UNIVERSITY INDUSTRY-UNIVERSITY COOPERATION …, priority 2024, published 2025)

Tests used:
[1] = in water at about 25° C.
[2] = tested on: Murine NIH-3T3 fibroblasts; assay: Cytotoxicity of the photoinitiator (cell viability of fibroblasts); type: cell-based; settings: concentration of about 0.2% (w/v), about 24 hours
Method: Murine NIH-3T3 fibroblasts purchased from ATCC (Manassas, VA, USA) were cultured in a cell culture dish in a size of about 100 mm along with DMEM supplemented with about 10% FBS and penicillin-streptomycin (about 100 UI/ml). The cultured cells were kept at about 37° C. in a sterile culture machine (Labogene, Seoul, Korea) containing about 5% CO2 until reaching the confluence.
To conduct cell viability analysis, fibroblasts were seeded into 24-well-plates (2×10^4 cells/well) and cultured in a sterile culture machine at about 37° C. for about 12 hours, and then the media were removed.
In particular, by substituting with highly biocompatible Mg^2+ ions, it was identified that there was a remarkable effect on reduction in the cytotoxicity.

[3] = Molar extinction coefficient by UV-visible absorption spectra in distilled water; type: physicochemical; settings: at about 405 nm, 10 mm quartz cuvettes
Text: FIG. 5 is a graph of a molar extinction coefficient (ε)-wavelength of Examples according to the present disclosure.

In the case of Cc1cc(C)c(C(=O)P(=O)([O-])c2ccccc2)c(C)c1.[Li+] [LAP, Lithium phenyl-2,4,6-trimethylbenzoylphosphination], the maximum solubility [1] is reported as “about 159.7 mM”, the cell viability [2] is reported as “about 46%” and the molar extinction coefficient [3] is reported as “about 29 M^−1·cm^−1”.
